# pIC50: −log10 of the molar value. Structures can show the parent of a compound that is named as a salt. Where two headings read alike, the source gives them in different places.
# Legend:
# [1] = test system: formation of NO measured as NO2^− (nitrite); test: Inhibition of NO (nitrite) formation in rabbit articular chondrocytes stimulated with IL-1β; format: cell-based; conditions: for pIC50: Oryctolagus cuniculus, Chondrocyte, read-out: Inhibition % IC50 NO; for inhibiting the production of NO (in words): rabbit articular chondrocytes stimulated with IL-1β
# Experimental: (§1) a) The inhibitory activity on the formation of NO measured as NO2^− (nitrite) and PGE2 was studied in vitro on culture media of rabbit articular chondrocytes stimulated with the cytokine IL-1β (1 ng/ml) for 48 hours. For the preparation of the chondrocytes, the method described by Berenbaum et al. [FEBS Letters 340, 51-55 (1994)] was followed. Briefly, fragments of cartilage removed aseptically from the articular heads of rabbit shoulder, hip and knee were finely ground and digested at 37° C. in hyaluronidase, trypsin and collagenase solutions, giving, after filtration through sterile gauze and centrifugation at 600×g and suitable dilution with 10% DMEM-FCS 10%, a concentration per well of about 1×10^5 cells. The cells were maintained under these conditions until confluent (about 15 days), the medium being replaced every 3 days. At this point, the test products dissolved in the medium were added to each sample and, after 20 minutes, 350 μl of IL-1β were added, to give a final concentration of 1 ng/ml. The stimulation lasted 48 hours at 37° C. (incubation in air/7% CO2). A nitrite assay was subsequently performed on the cell supernatant, as described by Green et al. [Anal. Biochem. 126, 131-138 (1982)], and of PGE2 by RIA assay. The results obtained are shown in Table 3, in which is given, for a number of the compounds that are the subject of the invention and that are already illustrated in Table 1, the IC50, i.e. the concentration (micromolar) of antagonist capable of inhibiting the formation of nitrites and PGE2 by 50% relative to the control group, i.e. relative to the cells stimulated with IL-1β but without addition of antagonists.
# PGE2 = test: Inhibition of PGE2 formation in rabbit articular chondrocytes stimulated with IL-1β (RIA); format: cell-based
# Experimental: as §1
# [2] = rabbit articular chondrocytes, IL-1β 1 ng/ml, 48 hours, nitrite in supernatant
# [3] = Oryctolagus cuniculus, Chondrocyte, rabbit articular chondrocytes stimulated with IL-1β, read-out: IC50, formation of PGE2
# [4] = Oryctolagus cuniculus, Chondrocyte, rabbit articular chondrocytes, IL-1β 1 ng/ml, 48 hours, RIA, read-out: Inhibition % IC50 PGE2
# [5] = rabbit articular chondrocytes stimulated with IL-1β
# [6] = rabbit articular chondrocytes, IL-1β 1 ng/ml, 48 hours, RIA
Compound,"pIC50 [1, 2]",pIC50 (PGE2; [4]),melting point,further results
"CC(=N)Nc1ccc2[nH]c(-c3ccccc3)nc2c1 [Compound 21, N-(2-phenyl-3H-benzimidazol-5-yl)acetamidine hydrochloride]",4.07,6.10,,"inhibiting the production of NO (in words) [1]: little activity; pIC50 (PGE2; [3]): 6.10 to 6.52; IC50, formation of PGE2 (PGE2; [5]): sub-micromolar"
"CC(=N)Nc1ccc2oc(-c3ccccc3F)nc2c1 [Compound 33, N-[2-(2-fluorophenyl)benzoxazol-5-yl]acetamidine]",4.33,4.86,157.9 to 159.2 °C,
"COC(=O)c1ccc(-c2nc3cc(NC(C)=N)ccc3[nH]2)cc1 [Compound 25, Methyl 4-(5-acetimidoylamino-1H-benzimidazol-2-yl)benzoate hydrochloride]",3.76,,,Inhibition % IC50 PGE2 (PGE2; [6]): IN (IN = <25% inhibitory activity at 30 × 10^−6M)
"COc1ccccc1-c1[nH]c2ccc(NC(C)=N)cc2[n+]1C [Compound 44, N-[1-methyl-2-(2-methoxyphenyl)benzimidazol-6-yl]acetamidine]",,,205.6 to 207.1 °C,
"COC(=O)c1ccc(-c2nc3cc(NC(C)=N)ccc3[nH]2)cc1 (as salt: hydrochloride) [Compound 25, Methyl 4-(5-acetimidoylamino-1H-benzimidazol-2-yl)benzoate hydrochloride]",,,284 to 288 °C,
"Br.CC(=N)Nc1ccc2nc(-c3ccc[nH]3)[nH]c2c1 [Compound 24, N-[2-(pyrrol-2-yl)-3H-benzimidazol-5-yl]acetamidine hydrobromide]",,,197 to 199 °C,
"CC(=N)Nc1ccc2[nH]c(-c3ccccc3F)nc2c1 (as salt: hydrobromid) [Compound 38, N-[2-(2-fluorophenyl)benzimidazol-5-yl]acetamidine hydrobromide]",,,266.8 to 269 °C,
N-[2-phenylbenzothiazol-5-yl]cyclopropylcarboxamidine [Compound 41],,,,"Inhibition % IC50 NO [1, 2]: IN (IN = <25% inhibitory activity at 30 × 10^−6M); pIC50 (PGE2; rabbit articular chondrocytes, IL-1β 1 ng/ml, 48 hours, RIA, read-out: Inhibition % IC50 PGE2): 5.40"
"CC(=N)Nc1ccc2oc(-c3ccc(C(F)(F)F)cc3)nc2c1 [Compound 32, N-[2-(4-trifluromethylphenyl)benzoxazol-5-yl]acetamidine]",5.09,6.22,179.2 to 181 °C,
"CC(=N)Nc1ccc2sc(-c3ccc[nH]3)nc2c1 [Compound 40, N-[2-(pyrrol-2-yl)benzothiazol-5-yl]acetamidine]",,5.08,166.7 to 169.1 °C,
"CCCCCc1nc2ccc(NC(C)=N)cc2[nH]1 (as salt: hydrochloride) [Compound 22, N-(2-pentyl-3H-benzimidazol-5-yl)acetamidine dihydrochloride]",,,276.9 to 278.3 °C,
"CC(=N)Nc1ccc2[nH]c(-c3ccc[nH]3)nc2c1 [Compound 23, N-[2-(pyrrol-2-yl)-3H-benzimidazol-5-yl]acetamidine dihydrochloride]",3.60,5.70,,
"CC(=N)Nc1ccc2[nH]c(-c3ccc(C(=O)O)cc3)nc2c1 [Compound 26, 4-(5-acetimidoylamino-1H-benzimidazol-2-yl)benzoic acid]",,,271.5 to 274.3 °C,Inhibition % IC50 PGE2 (PGE2; [6]): IN (IN = <25% inhibitory activity at 30 × 10^−6M)
"CC(=N)Nc1ccc2[nH]c(-c3ccc(F)cc3)nc2c1 [Compound 19, N-[2-(4-fluorophenyl)benzimidazol-5-yl]acetamidine dihydrochloride]",4.11,6.15,,"inhibiting the production of NO (in words) [1]: little activity; pIC50 (PGE2; [3]): 6.10 to 6.52; IC50, formation of PGE2 (PGE2; [5]): sub-micromolar"
"CC(=N)Nc1ccc2[nH]c(-c3ccccc3F)nc2c1 [Compound 38, N-[2-(2-fluorophenyl)benzimidazol-5-yl]acetamidine hydrobromide]",,,,Inhibition % IC50 PGE2 (PGE2; [6]): IN (IN = <25% inhibitory activity at 30 × 10^−6M)
"CC(=N)Nc1ccc2[nH]c(-c3ccc(Cl)cc3)nc2c1 [Compound 20, N-[2-(4-chlorophenyl)benzimidazol-5-yl]acetamidine]",4.64,6.40,153.6 to 156 °C,"inhibiting the production of NO (in words) [1]: little activity; pIC50 (PGE2; [3]): 6.10 to 6.52; IC50, formation of PGE2 (PGE2; [5]): sub-micromolar"
"CCCCCc1nc2ccc(NC(C)=N)cc2[nH]1 [Compound 22, N-(2-pentyl-3H-benzimidazol-5-yl)acetamidine dihydrochloride]",3.91,4.50,,

Compound,"pIC50 [1, 2]",pIC50 (PGE2; [4]),melting point,further results
"COc1ccc(S(N)(=O)=O)cc1-c1nc2cc(NC(C)=N)ccc2s1 (as salt: hydrochloride) [Compound 13, N-[2-(5-aminosulfonyl-2-methoxyphenyl)benzothiazol-5-yl]acetamidine hydrochloride]",,,244 to 248 °C,
"CC(=N)Nc1ccc2[nH]c(-c3cccc(C(F)(F)F)c3)nc2c1 [Compound 36, N-[2-(3-trifluoromethylphenyl)benzimidazole-5-yl]acetamidine hydrobromide]",,,,Inhibition % IC50 PGE2 (PGE2; [6]): IN (IN = <25% inhibitory activity at 30 × 10^−6M)
"CC(=N)Nc1ccc2nc(-c3ccccc3)ncc2c1 (as salt: hydrochloride) [Compound 27, N-(2-phenylquinazolin-6-yl)acetamidine dihydrochloride]",,,162 to 168 °C,
"CC(=N)Nc1ccc2[nH]c(-c3cccc(C(F)(F)F)c3)nc2c1 (as salt: hydrobromid) [Compound 36, N-[2-(3-trifluoromethylphenyl)benzimidazole-5-yl]acetamidine hydrobromide]",,,284.3 to 285.4 °C,
"CC(=N)Nc1ccc2oc(-c3cccc(C(F)(F)F)c3)nc2c1 [Compound 31, N-[2-(3-trifluromethylphenyl)benzoxazol-5-yl]acetamidine]",4.95,5.54,157.9 to 159.2 °C,
"CC(=N)Nc1ccc2[nH]c(-c3ccc(Cl)c(Cl)c3)nc2c1 [Compound 35, N-[2-(3,4-dichlorophenyl)benzimidazol-5-yl]acetamidine]",,6.40,207.4 to 209 °C,"inhibiting the production of NO (in words) [1]: little activity; pIC50 (PGE2; [3]): 6.10 to 6.52; IC50, formation of PGE2 (PGE2; [5]): sub-micromolar"
"CC(=N)Nc1ccc2[nH]c(-c3ccc[nH]3)nc2c1 (as salt: hydrochloride) [Compound 23, N-[2-(pyrrol-2-yl)-3H-benzimidazol-5-yl]acetamidine dihydrochloride]",,,318 to 322 °C,
COc1ccccc1-c1nc2cc(NC(C)=N)ccc2[nH]1 [Compound 37],4.49,5.55,190.5 to 192.8 °C,
"CC(=N)Nc1ccc2sc(-c3ccccn3)nc2c1 [Compound 14, N-[2-(2-pyridyl)benzothiazol-5-yl]acetamidine]",,4.37,187.2 to 188.9 °C,
"CC(=N)Nc1ccc2sc(/C=C/c3ccccc3)nc2c1 [Compound 12, N-[2-styrylbenzothiazol-5-yl]acetamidine]",4.05,5.89,90.8 to 91.8 °C,"inhibiting the production of NO (in words) [1]: little activity; IC50, formation of PGE2 (PGE2; [5]): sub-micromolar"
"CC(=N)Nc1ccc2[nH]c(-c3ccc(F)cc3)nc2c1 (as salt: hydrochloride) [Compound 19, N-[2-(4-fluorophenyl)benzimidazol-5-yl]acetamidine dihydrochloride]",,,283.7 to 286.3 °C,
"CC(=N)Nc1ccc2[nH]c(-c3ccccc3)nc2c1 (as salt: hydrochloride) [Compound 21, N-(2-phenyl-3H-benzimidazol-5-yl)acetamidine hydrochloride]",,,164 to 166 °C,
"CC(=N)Nc1ccc2nc(-c3ccccc3)oc2c1 [Compound 42, N-(2-phenylbenzoxazol-6-yl)acetamidine]",4.37,5.29,176.3 to 177.8 °C,
"COc1ccc(S(N)(=O)=O)cc1-c1nc2cc(NC(C)=N)ccc2s1 [Compound 13, N-[2-(5-aminosulfonyl-2-methoxyphenyl)benzothiazol-5-yl]acetamidine hydrochloride]",,4.79,,
"COc1ccccc1-c1nc2cc(NC(C)=N)ccc2n1C (as salt: hydrochloride) [Compound 43, N-[1-methyl-2-(2-methoxyphenyl)benzimidazol-5-yl]acetamidine dihydrochloride]",,,253.1 to 254.7 °C,
"CC(=N)Nc1ccc2sc(Cc3ccccc3)nc2c1 [Compound 11, N-[2-benzylbenzothiazol-5-yl]acetamidine]",4.82,5.13,117.9 to 120 °C,

# Source: patent US20050197331A1, “Novel anti-inflammatory and analgesic heterocyclic amidines that inhibit nitrogen oxide (NO) production” (ROTTAPHARM SPA, priority 2004, published 2005)
